Drawing on patent publication US5141934A, “Tetracyclic amines having pharmaceutical activity” (Warner-Lambert Company, priority 1990, dated 1992), this text covers IC50 for six compounds.

Each structure is given as a SMILES string.

This test addresses phencyclidine (PCP) receptors (noncompetitive NMDA antagonist binding site). Kind of test: Tritiated 1[1-(2 thienyl)cyclohexyl]piperidine (TCP) binding, designated RBS1. As to conditions: Table 1, read-out: RBSI IC50. As to the method: The ability of the compounds of the instant invention to interact with phencyclidine (PCP) receptors which represents a noncompetitive NMDA antagonist binding site, is shown in Table 1. Tritiated 1[1-(2 thienyl)cyclohexyl]piperidine (TCP) binding, designated RBS1, was carried out essentially as described in J. Pharmacol. Exp. Ther., 238, 739 (1986).
One may read the IC50 as the concentration needed to halve the response being measured. Turning to `c1ccc2c(c1)C[C@H]1CN[C@@]23CCCC[C@@H]13` (relative stereo) [Example 14, (+/-)-(4aα,10α,10aα) 1,3,4,9,10,10a Hexahydro-2H-4a,10-(iminomethano)phenanthrene], the half-inhibitory concentration (IC50) came to 86 nM.

Consider `CCCN1C[C@@H]2Cc3ccccc3[C@]13CCCC[C@@H]23` (relative stereo) [Example 19, (+/-)-(4aα,10α,10aα)-1,3,4,9,10,10a-Hexahydro-12-propyl-2H-4a,10-(iminomethano)phenanthrene], for which the 50% inhibitory concentration (IC50) worked out at 54 nM.

Regarding `CN1C[C@@H]2Cc3ccccc3[C@]13CCCC[C@@H]23` (relative stereo) [Example 16, (+/-)-(4aα,10α,10aα) 1,3,4,9,10,10a-Hexahydro-12-methyl-2H 4a,10-(iminomethano)phenanthrene], the IC50 was 137 nM.

Turning to `c1ccc2c(c1)C[C@H]1CN(CC3CC3)[C@@]23CCCC[C@@H]13` (relative stereo) [Example 20, (+/-)-(4aα,10α,10aα)-12-(Cyclopropylmethyl)-1,3,4,9,10,10a-hexahydro-2H-4a,10-(iminomethano)-phenanthrene], the concentration for half-maximal inhibition (IC50) came to 51 nM.

`c1ccc(C2(N3CCCCC3)CCCCC2)cc1` [PCP, phencyclidine]: the IC50 came out at 40 nM.

As for `c1csc(C2(N3CCCCC3)CCCCC2)c1` [TCP, 1[1-(2 thienyl)cyclohexyl]piperidine], the IC50 is 9 nM.
